US9200011B2, “Ring constrained analogs as arginase inhibitors” (Mars, Incorporated, priority 2012, dated 2015)

How the values were obtained:
human arginase I (ARG I) = target: T1, human arginase I (ARG I) (Homo sapiens, UniProt P05089); assay: Inhibition of arginase I, spectrophotometric urea assay at 530 nm; format: biochemical; conditions: potency rank 1-5; pH 7.4, 37° C., 60 minutes
T1 sequence (P05089 1-322): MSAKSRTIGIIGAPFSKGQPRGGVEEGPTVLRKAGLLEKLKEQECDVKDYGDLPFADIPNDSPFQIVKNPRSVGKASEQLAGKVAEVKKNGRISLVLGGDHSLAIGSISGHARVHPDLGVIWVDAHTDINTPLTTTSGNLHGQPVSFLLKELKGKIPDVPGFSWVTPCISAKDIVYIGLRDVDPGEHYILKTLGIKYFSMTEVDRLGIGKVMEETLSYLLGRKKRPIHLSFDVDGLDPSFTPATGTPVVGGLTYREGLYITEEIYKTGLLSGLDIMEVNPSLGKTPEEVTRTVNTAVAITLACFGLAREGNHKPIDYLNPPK
Method: (§1) The assay established the concentration of inhibitor that is required to reduce arginase activity by 50% (IC50).
(§2) Inhibition of arginase I (ARG I) and arginase II (ARG II) by the inventive compounds is followed spectrophotometrically at 530 nm. The compound to be tested is dissolved in DMSO at an initial concentration 50-fold greater than its final concentration in the cuvette. 10 μl of the stock solution is diluted in 90 μl of the assay buffer that comprises 0.1M sodium phosphate buffer containing 130 mM NaCl, pH 7.4, to which is added ovalbumin (OVA) at a concentration of 1 mg/ml. Solutions of arginase I and II are prepared in 100 mM sodium phosphate buffer, pH 7.4 containing 1 mg/ml of OVA to give an arginase stock solution at a final concentration of 100 ng/ml.
(§3) To each well of a 96-well microtiter plate is add 40 μl of enzyme, 10 μl of an inventive compound and 10 μl of enzyme substrate (L-arginine+manganese sulfate). For wells that are used as positive controls, only the enzyme and its substrate are added, while wells used as negative controls contain only manganese sulfate.
(§4) After incubating the microtiter plate at 37° C. for 60 minutes, 150 μl of a urea reagent obtained by combining equal proportions (1:1) of reagents A and B is added to each well of the microtiter plate to stop the reaction. The urea reagent is made just before use by combining Reagent A (10 mM o-phthaldialdehyde, and 0.4% polyoxyethylene (23) lauryl ether (w/v) in 1.8 M sulfuric acid) with Reagent B (1.3 mM primaquine diphosphate, 0.4% polyoxyethylene (23) lauryl ether (w/v), 130 mM boric acid in 3.6 M sulfuric acid). After quenching the reaction mixture, the microtiter plate is allowed to stand for an additional 10 minutes at room temperature to allow color development. The inhibition of arginase is computed by measuring the optical density (OD) of the reaction mixture at 530 nm and normalizing the OD value to percent inhibition observed in the control. The normalized OD is then used to generate a dose-response curve by plotting the normalized OD values against log [concentration] and using regression analysis to compute the IC50 values.

arginase II (ARG II) = target: T2, arginase II (ARG II) (Homo sapiens, UniProt P78540); assay: Inhibition of arginase II, spectrophotometric urea assay at 530 nm; format: biochemical; conditions: potency rank 1-5; pH 7.4, 37° C., 60 minutes
T2 sequence (P78540 23-354): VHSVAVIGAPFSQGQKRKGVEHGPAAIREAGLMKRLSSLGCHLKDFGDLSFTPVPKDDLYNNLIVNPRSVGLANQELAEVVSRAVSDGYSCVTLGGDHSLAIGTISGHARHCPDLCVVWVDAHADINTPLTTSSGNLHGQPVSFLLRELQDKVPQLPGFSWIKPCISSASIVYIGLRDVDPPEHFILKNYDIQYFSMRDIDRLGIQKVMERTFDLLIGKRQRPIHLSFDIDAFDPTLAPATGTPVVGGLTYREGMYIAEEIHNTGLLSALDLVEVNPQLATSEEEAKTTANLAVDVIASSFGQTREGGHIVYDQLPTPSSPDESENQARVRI
Method: as §1, §2, §3, §4

tumor bearing mice = conditions: cited from earlier work
murine chronic model = conditions: murine chronic asthma model; cited from earlier work
[1] = system: animals undergoing experimental autoimmune encephalomyelitis (EAE); conditions: mouse, in vivo; cited from earlier work
[2] = system: spontaneously hypertensive rats; conditions: cited from earlier work
bacterial arginase = conditions: cited from earlier work

Row | SMILES | IC50 (human arginase I (ARG I)) | IC50 (arginase II (ARG II)) | further results
1 | N[C@@]1(C(=O)O)C[C@@H](CN(C2CCC2)C2CCC2)C[C@@H]1CCCB(O)O [Example 6, (1S,2S,4S)-1-amino-2-(3-boronopropyl)-4-((dicyclobutylamino)methyl)cyclopentanecarboxylic acid] | 101 to 500 nM | 101 to 500 nM | –
2 | Nc1ccn([C@@H]2O[C@H](CO)[C@@H](O)C2(F)F)c(=O)n1 [gemcitabine] | – | – | MDSC immunesuppression (tumor bearing mice): eliminates; tumor growth (tumor bearing mice): delayed tumor growth
3 | N[C@@]1(C(=O)O)CCC[C@@H]1CCCB(O)O [Example 8, (1S,2S)-1-amino-2-(3-boronopropyl)cyclopentanecarboxylic acid] | 101 to 500 nM | 101 to 500 nM | –
4 | N[C@@H](CSCCB(O)O)C(=O)O [S-(2-boronoethyl)-L-cysteine] | – | – | methacholine induced responsiveness of the central airways (murine chronic model): attenuated
5 | NC(CCCCB(O)O)C(=O)O (stereo not shown) [ABH, amino-6-boronohexanoic acid] | – | – | severity of EAE versus control animals [1]: much milder form of EAE
6 | O=c1[nH]cc(F)c(=O)[nH]1 [5-Fluorouracil] | – | – | MDSC immunesuppression (tumor bearing mice): eliminates; tumor growth (tumor bearing mice): delayed tumor growth
7 | CN[C@@]1(C(=O)O)CCC[C@@H]1CCCB(O)O [Example 7, (1S,2S)-2-(3-boronopropyl)-1-(methylamino) cyclopentanecarboxylic acid] | 501 to 1500 nM | 501 to 1500 nM | –
8 | N=C(NO)NCC[C@H](N)C(=O)O [nor-NOHA, N^ω-hydroxy-nor-L-arginine] | – | – | vascular response of resistance vessels to blood flow and pressure ([2]; spontaneously hypertensive animals): improved; blood pressure ([2]; spontaneously hypertensive rats/animals): lowered blood pressure
9 | NC(=NCCC[C@H](N)C(=O)O)NO [NOHA] | – | – | CD3 expression on T-cells (bacterial arginase): reestablished; production of NO by macrophages (bacterial arginase): enhanced
10 | N[C@@]1(C(=O)O)CNC[C@@H]1CCCB(O)O [Example 9, (3R,4S)-3-amino-4-(3-boronopropyl)pyrrolidine-3-carboxylic acid] | 101 to 500 nM | 101 to 500 nM | –

More lines, main results first:

Row | IC50 (human arginase I (ARG I)) | IC50 (arginase II (ARG II)) | SMILES | further results
11 | 26 to 100 nM | 101 to 500 nM | N[C@@]1(C(=O)O)C[C@@H](CNC2CCC2)C[C@@H]1CCCB(O)O [Example 5, (1S,2S,4S)-1-amino-2-(3-boronopropyl)-4-((cyclobutylamino)methyl)cyclopentanecarboxylic acid] | –
12 | 26 to 100 nM | 26 to 100 nM | N[C@@]1(C(=O)O)C[C@@H](CNCc2ccccc2)C[C@@H]1CCCB(O)O [Example 1, (1S,2S,4S)-1-amino-4-((benzylamino)methyl)-2-(3-boronopropyl)cyclopentanecarboxylic acid] | –
13 | 26 to 100 nM | 26 to 100 nM | N[C@@]1(C(=O)O)C[C@@H](CNCc2ccc(-c3ccc(Cl)cc3)cc2)C[C@@H]1CCCB(O)O [Example 2, (1S,2S,4S)-1-amino-2-(3-boronopropyl)-4-((((4′-chloro-[1,1′-biphenyl]-4-yl)methyl)amino)methyl)cyclopentanecarboxylic acid] | –
14 | 26 to 100 nM | 101 to 500 nM | N[C@@]1(C(=O)O)C[C@@H](CNC2Cc3ccccc3C2)C[C@@H]1CCCB(O)O [Example 3, (1S,2S,4S)-1-amino-2-(3-boronopropyl)-4-(((2,3-dihydro-1H-inden-2-yl)amino)methyl)cyclopentanecarboxylic acid] | –
15 | 26 to 100 nM | 26 to 100 nM | N[C@@]1(C(=O)O)C[C@@H](CNC2CCc3ccccc3C2)C[C@@H]1CCCB(O)O (stereo partly drawn) [Example 4, (1S,2S,4S)-1-amino-2-(3-boronopropyl)-4-(((1,2,3,4-tetrahydronaphthalen-2-yl)amino)methyl)cyclopentanecarboxylic acid] | –
